Three molecules from patent US20060140957A1, “Eph/ephrin mediated modulation of cell adhesion and tumour cell metastasis” (priority 2003, published 2006) can be followed below.

For test [1], the system named is EphA3/HEK 293 cells. The experiment in a line: Phosphatase inhibition, anti-EphA3 IP / anti-phosphotyrosine western blot. The class given is cell-based, human. The settings on record: increasing amounts. The method, then: (§1) FIG. 8. Phosphatase inhibition triggers EphA3 phosphorylation in LK63 cells • (A) Anti-EphA3 immunoprecipitates from TritonX100 lysates of EphA3/HEK 293, EphA3/AO2 melanoma cells and LK63 leukaemia cells were treated with either crosslinked ephrin-A5 or increasing concentrations of sodium pervanadate as indicated, and analysed by anti-phosphotyrosine western blot. • (B) Anti-EphA3 immunoprecipitates from TritonX100 lysates of vanadate or hydrogen peroxide-treated EphA3/HEK 293 (left panel) and EphA3/AO2 melanoma cells(right panel) were analysed as described in (A).

The test system of test [2] is EphA3/A02 malignant melanoma cells. Described as above. The class given is cell-based. The settings on record: increasing amounts. Here is the method: as §1
In test [3] the test system is EphA3/HEK 293 cells. Nature of the test: Cleavage and internalisation of Alexa-labelled protein from protein A Dynabeads. The class given is cell-based, human. The settings on record: 5 mM, 4 h prior to bead addition. The method, then:
(§2) FIG. 6. Eph/ephrin mediated cell-cell repulsion, but not adhesion leads to ephrinA5 cleavage by a metalloprotease. • (A) Alexa ephrinA5-Fc (I, III) or Alexa EphA1 Fc (II) control proteins, conjugated onto protein A-coated Dynabeads were added to cultures of EphA3/HEK 293 cells (I, II) or LK63 cells (III). Cleavage and internalisation of the fluorescent proteins was monitored by confocal microscopy. Selected images of confocal time-lapse experiments (1 frame/min) are shown. Alexa 546 fluorescence is represented in white and outlines cells in panels I, while the cells in panels II, III appear dark-grey or black. • (B) Prior to stimulation (30 min) with Alexa ephrinA5-Fc coated beads (I, II) or with Alexa Fc control beads (III), parallel cultures of EphA3/293 cells were treated for 4 h with 5 mM 1′,10′-O-Phenanthroline (II) or left untreated (I, III). […] Using an EphA3-Fc construct, ephrin-A5 was immuno precipitated from lysates of EphA3/HEK 293 cells or LK63 cells, which had been treated for indicated times with 7.5 ì g/ml of pre-clustered (+X-lnk) or non-clustered (−X-lnk) ephrin-A5 Fc, and analysed for ephrin cleavage by Western blot with anti-ephrinA5 antibody. […]
Eph/ephrin stimulation was analysed in-situ by time-lapse confocal microscopy and immunocytochemistry as described (Lawrenson et al., 2002). […]

The subject of test [4] is EphA3/HEK 293 cells. The experiment in a line: Biochemical demonstration of ephrin cleavage (Western blot). The class given is cell-based, human. Particulars: cells stimulated with clustered ephrin-A5 Fc. The method, then: as §2, with “antibody. To assess cleavage by metalloproteases, parallel cultures were treated with 1′,10′-O-phenanthroline (+OPN) or left untreated.” for “antibody.”
(In general: A western blot detects proteins with antibodies after separation by electrophoresis.)

A further test has as its system LK63 leukaemia cells. The experiment in a line: Phosphatase inhibition, anti-EphA3 IP / anti-phosphotyrosine western blot. The class given is cell-based, human. Particulars: highest concentration tested (1 mM). Here is the method:
as §1

Test [5] deals with HEK293 cells expressing 3YF EphA3GFP. Nature of the test: FLIM/FRET of EphA3 phosphorylation after phosphatase inhibition. Particulars: 30 min, high concentrations. The class given is cell-based, human. Here is the method:
(§3) FIG. 7. Pervanadate-induced Eph receptor phosphorylation HEK293 cells, expressing w/t EphA3GFP (A) or 3YF EphA3GFP (B) were incubated with pervanadate (30 min) at indicated concentrations. Fixed cells were examined for FRET as described above. Left, GFP-fluorescence; right, GFP fluorescence lifetime phase maps. Tabulated colour codes indicate GFP lifetimes in ns.
(§4) GFP EphA3 (w/t or mutant) expressing cells were stimulated, fixed, permeabilised and stained with Cy3-conjugated anti phosphotyrosine monoclonal antibody PY72 prior to mounting onto glass slides using Mowiol (Calbiochem). Fluorescence lifetime imaging microscopy (FLIM) sequences were obtained at 80 MHz with an Olympus IX70 microscope (100/1.4 NA oil immersion lens) and analysed as described (Reynolds, Tischer et al. 2003). A 476-nm argon laser line and narrow-band emission filter (HQ510/20; Chroma) were used for GFP, a 100-W mercury arc lamp with high Q Cy3 filter set (excite, HQ545/30; dicroic, Q580LP; emitter, HQ610/75) for Cy3 and Alexa 546. GFP Fluorescence was detected with a dichroic beamsplitter (Q495 LP; Chroma Technology, Brattleboro, Vt.) and narrow-band emission filter. Stimulated FRET was measured in live 293 cells between transiently expressed ephrin-A2GFP and Alexa546 EphA3-Fc.

Test [6] relates to HEK293 cells expressing w/t EphA3GFP. Described as above. The class given is cell-based, human. Particulars: 30 min, increasing concentrations. The method, then:
as §3, §4

Another test deals with LK63 cells. Nature of the test: Cell morphology on ephrinA5-Fc coated glass coverslips (rhodamin-phalloidin). The class given is cell-based, human. The settings on record: 4 h. Here is the method:
FIG. 1. Surface-bound ephrinA5 causes either cell repulsion or cell adhesion of EphA3-positive tumour cells. • (A) EphA3-positive LK63 human pre-B leukemia cells and LiBr melanoma cells were plated onto glass coverslips coated with ephrinA5-Fc (ephrin, 10 μg/ml) or fibronectin (FN, 10 μg/ml). After 4h the cytoskeleton of adherent, fixed cells was stained with rhodamin-phalloidin. Pictures of representative fluorescence images are shown; the second column represents magnified sections of the first. Scale bar: 20 ì m. • (B) LK63 adhesion and LiBr de-adhesion to surface-bound ephrinA5 are dose-dependent. […] After 4-hour incubation, adherent cells, withstanding rigorous washing, were quantitated by XTT assay (A492 absorbance). Cell attachment is expressed as a percentage (mean, S.E. from three independent assays) relative to wells containing most adherent cells; ( ), LK63 and ( ), LiBr cells and ( ), LK63, ( ), LiBr cells with ephrin inhibition (+inh.). • (C) LiBr melanoma cells in matrigel-coated Basement Membrane migration chambers (Becton Dickinson, 5×10^4/well) were exposed to chemoattractant, 3T3 conditioned media (cond. media) or 1.5 ì g/ml pre-clustered ephrin-A5 Fc in the bottom chamber, or with 1.5 ì g/mil pre-clustered ephrin-A5 Fc placed together with cells into the top chamber. […]

For the molecule `OO` [H2O2, hydrogen peroxide], the EphA3 phosphorylation result (with EphA3/HEK 293 cells [1]; in test [2]) was “dose dependent increase in EphA3 phosphorylation” in each case.
On to `c1cnc2c(c1)ccc1cccnc12` [1′,10′-O-Phenanthroline], for which the “effect on ephrin cleavage and internalisation from Alexa ephrin-A5-Fc beads” value with EphA3/HEK 293 cells [3] is “completely abrogated ephrin cleavage and internalisation”. Also, the “effect on ephrin cleavage (anti-ephrinA5 Western blot)” value in the test with EphA3/HEK 293 cells [4] was “significantly-reduced ephrin cleavage”.
For the molecule sodium-pervanadate, in the test on LK63 leukaemia cells, the “EphA3 phosphorylation compared with EphA3/HEK 293 and EphA3/A02 cells” value is “significantly lower”. Further, the EphA3 phosphorylation result (in the test on EphA3/HEK 293 cells [1]; in test [2]) was “dose dependent increase in EphA3 phosphorylation” throughout. Further, the “GFP fluorescent lifetime (receptor phosphorylation)” value was “retained their GFP lifetime” in test [5] and “dramatic dose-dependent decrease in the GFP fluorescent lifetime” in test [6]. Besides, in the test with LK63 cells, the “LK63 morphology on ephrin-coated coverslips under phosphatase inhibition” value was “lose their characteristic extensions and appear rounded”.
